From PubChem BioAssay AID248 (DTP/NCI, 2004)
Where “and” joins values, the source holds several entries; their conditions need not be identical. Equal entries are not always repeated. Toxic doses and inconclusive results are not listed. No stated cut-off is given here; in the data, active means T/C of 150% or more; inactive means T/C below 125%. Square brackets hold non-standard residues; d marks the D form. Peptide text beside a SMILES is read from it. * marks the point of attachment. ξ: configuration not given here. ξH = NC(Cc1c[nH]cn1)C(=O)O; Cbz = O=C(OCc1ccccc1)*

System: L1210 leukemia ip in BDF1 mice, survival T/C
Assay: NCI In Vivo Anticancer Drug Screen. Data for tumor model L1210 Leukemia (intraperitoneal) in B6D2F1 (BDF1) mice
Conditions: endpoint: mean survival time, higher = longer survival
Outline: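 Antitumor effect is assessed in tumor-bearing animals. Survival in the compound arm is compared with a vehicle-dosed control arm and expressed as their quotient.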

[1] = dose: 100.0 mg/kg/injection, schedule: Q01DX009 (ip), vehicle: Klucel (hydroxypropylcellulose) (HPC)
[2] = dose: 100.0 mg/kg/injection, schedule: Q04DX003 (ip), vehicle: Klucel (hydroxypropylcellulose) (HPC)
[3] = dose: 200.0 mg/kg/injection, schedule: Q01DX009 (ip), vehicle: Klucel (hydroxypropylcellulose) (HPC)
[4] = dose: 200.0 mg/kg/injection, schedule: Q04DX003 (ip), vehicle: Klucel (hydroxypropylcellulose) (HPC)
[5] = dose: 400.0 mg/kg/injection, schedule: Q01DX009 (ip), vehicle: Klucel (hydroxypropylcellulose) (HPC)
[6] = dose: 400.0 mg/kg/injection, schedule: Q04DX003 (ip), vehicle: Klucel (hydroxypropylcellulose) (HPC)
[7] = dose: 100.0 mg/kg/injection, schedule: Q01DX009 (ip), vehicle: saline sonified
[8] = dose: 100.0 mg/kg/injection, schedule: Q01DX009 (ip), vehicle: saline
[9] = dose: 100.0 mg/kg/injection, schedule: Q04DX003 (ip), vehicle: saline
[10] = dose: 50.0 mg/kg/injection, schedule: Q01DX009 (ip), vehicle: Klucel (hydroxypropylcellulose) (HPC)
[11] = dose: 100.0 mg/kg/injection, schedule: Q04DX002 (ip), vehicle: saline with Tween-80
[12] = dose: 200.0 mg/kg/injection, schedule: Q04DX002 (ip), vehicle: saline with Tween-80
[13] = dose: 200.0 mg/kg/injection, schedule: Q01DX009 (ip), vehicle: saline sonified
[14] = dose: 400.0 mg/kg/injection, schedule: Q01DX009 (ip), vehicle: saline sonified
[15] = dose: 100.0 mg/kg/injection, schedule: Q01DX001 (ip), vehicle: saline
[16] = dose: 200.0 mg/kg/injection, schedule: Q01DX001 (ip), vehicle: saline
[17] = dose: 400.0 mg/kg/injection, schedule: Q01DX001 (ip), vehicle: saline
[18] = dose: 200.0 mg/kg/injection, schedule: Q04DX003 (ip), vehicle: saline
[19] = dose: 400.0 mg/kg/injection, schedule: Q04DX003 (ip), vehicle: saline

Measured: T/C

CC(=O)c1c(O)c(Br)c(C)oc1=O (tested in a mixture with another compound)
inactive: dose: 6.25 mg/kg/injection, schedule: Q01DX009 (ip), vehicle: saline with Tween-80 89 % of control | dose: 12.5 mg/kg/injection, schedule: Q01DX009 (ip), vehicle: saline with Tween-80 100 % of control | dose: 25.0 mg/kg/injection, schedule: Q01DX009 (ip), vehicle: saline with Tween-80 93 % of control

CCOC(=O)C(Cc1ccc(O)cc1)NP(=O)(OCCCl)OCCCl (configuration not stated)
inactive: [1] 100 % of control | [2] 95 % of control | [3] 98 % of control | [4] 90 % of control | [5] 100 % of control | [6] 94 % of control

NC1(CO)COC(c2ccccc2)OC1 (configuration not stated)
inactive: dose: 12.5 mg/kg/injection, schedule: Q01DX009 (ip), vehicle: saline 102 % of control | dose: 12.5 mg/kg/injection, schedule: Q04DX003 (ip), vehicle: saline 102 % of control | dose: 25.0 mg/kg/injection, schedule: Q01DX009 (ip), vehicle: saline 94 % of control | dose: 25.0 mg/kg/injection, schedule: Q04DX003 (ip), vehicle: saline 96 % of control | dose: 50.0 mg/kg/injection, schedule: Q01DX009 (ip), vehicle: saline 96 % of control and 104 % of control | dose: 50.0 mg/kg/injection, schedule: Q04DX003 (ip), vehicle: saline 105 % of control | [7] 96 % of control | [8] 112 % of control | [9] 107 % of control and 110 % of control

COc1ccc(-n2c(=O)c(N=Nc3ccc(Cl)cc3)c(O)n(-c3ccccc3C)c2=S)cc1
inactive: dose: 37.5 mg/kg/injection, schedule: Q01DX001 (ip), vehicle: Klucel (hydroxypropylcellulose) (HPC) 96 % of control | dose: 75.0 mg/kg/injection, schedule: Q01DX001 (ip), vehicle: Klucel (hydroxypropylcellulose) (HPC) 90 % of control | dose: 150.0 mg/kg/injection, schedule: Q01DX001 (ip), vehicle: Klucel (hydroxypropylcellulose) (HPC) 92 % of control

O=S(=O)(NC(CCl)=NCc1ccccc1)c1ccccc1
inactive: dose: 100.0 mg/kg/injection, schedule: Q04DX002 (ip), vehicle: Klucel (hydroxypropylcellulose) (HPC) 96 % of control | dose: 200.0 mg/kg/injection, schedule: Q04DX002 (ip), vehicle: Klucel (hydroxypropylcellulose) (HPC) 100 % of control | dose: 400.0 mg/kg/injection, schedule: Q04DX002 (ip), vehicle: Klucel (hydroxypropylcellulose) (HPC) 86 % of control

CN(C)C(=O)C1Cc2ccccc2CC1C(=O)N(C)C (configuration not stated)
inactive: [10] 97 % of control | [1] 97 % of control | [2] 101 % of control | [3] 101 % of control | [4] 102 % of control | [6] 97 % of control

O=C(O)/C=C\C(Cl)(Cl)Cl
inactive: [11] 97 % of control | [12] 93 % of control

COc1cc2ccc(CN3CCCC3C(=O)OCc3ccccc3)cc2cc1OC (configuration not stated)
inactive: [7] 100 % of control | dose: 100.0 mg/kg/injection, schedule: Q04DX003 (ip), vehicle: saline sonified 95 % of control | [13] 96 % of control | dose: 200.0 mg/kg/injection, schedule: Q04DX003 (ip), vehicle: saline sonified 96 % of control | [14] 91 % of control | dose: 400.0 mg/kg/injection, schedule: Q04DX003 (ip), vehicle: saline sonified 96 % of control

CC1CCCC(C)N1CC(O)c1ccccc1 (configuration not stated)
inactive: dose: 6.25 mg/kg/injection, schedule: Q04DX003 (ip), vehicle: saline with Tween-80 94 % of control | dose: 12.5 mg/kg/injection, schedule: Q04DX003 (ip), vehicle: saline with Tween-80 97 % of control | dose: 25.0 mg/kg/injection, schedule: Q04DX003 (ip), vehicle: saline with Tween-80 97 % of control

CC(C)c1ccc(/C=C/C(=O)c2ccc(F)cc2)cc1
inactive: dose: 100.0 mg/kg/injection, schedule: Q01DX009 (ip), vehicle: saline with Tween-80 90 % of control | [11] 97 % of control | dose: 200.0 mg/kg/injection, schedule: Q01DX009 (ip), vehicle: saline with Tween-80 90 % of control | [12] 86 % of control | dose: 400.0 mg/kg/injection, schedule: Q01DX009 (ip), vehicle: saline with Tween-80 93 % of control | dose: 400.0 mg/kg/injection, schedule: Q04DX002 (ip), vehicle: saline with Tween-80 97 % of control

CCC(Nc1ccccc1)C(=O)O (configuration not stated)
inactive: [15] 96 % of control | [16] 100 % of control | [17] 102 % of control

O=C(N/N=C/c1cccnc1)c1ccc(O)cc1
inactive: [1] 91 % of control | [3] 96 % of control | [5] 94 % of control

Cc1cnc(SCc2ccc(Cl)cc2)nc1N(Cc1ccccc1)Cc1ccccc1
inactive: dose: 100.0 mg/kg/injection, schedule: Q01DX Z (ip), vehicle: methylcellulose (MC) 87 % of control

O=C(CNC(=O)OCc1ccccc1)NC(Cc1cnc[nH]1)C(=O)O (stereo not drawn) (Cbz-Gly-[ξH]-OH)
inactive: [15] 96 % of control | [16] 104 % of control | [17] 107 % of control

Nc1nc2ccc([N+](=O)[O-])cc2s1
inactive: [10] 105 % of control | [1] 104 % of control | [9] 97 % of control | [18] 101 % of control | [19] 86 % of control

Cc1cc(N(CCCl)CCCl)ccc1C=Nc1ccc(C(=O)O)c(O)c1
inactive: dose: 100.0 mg/kg/injection, schedule: Q01DX001 (ip), vehicle: carboxymethylcellulose (CMC) 111 % of control | dose: 200.0 mg/kg/injection, schedule: Q01DX001 (ip), vehicle: carboxymethylcellulose (CMC) 95 % of control

Oc1ccc2c(c1)Cc1c-2nc2ccccc2c1Cl
inactive: dose: 50.0 mg/kg/injection, schedule: Q01DX001 (ip), vehicle: saline 97 % of control | [15] 98 % of control | [16] 97 % of control | [17] 93 % of control

O=[N+]([O-])c1cccc2c(Br)cccc12
inactive: [8] 106 % of control | [9] 103 % of control | dose: 200.0 mg/kg/injection, schedule: Q01DX009 (ip), vehicle: saline 95 % of control | [18] 100 % of control | dose: 400.0 mg/kg/injection, schedule: Q01DX009 (ip), vehicle: saline 95 % of control | [19] 106 % of control

S=C(c1ccccc1)N(c1ccccc1)c1ccc2ccccc2c1
inactive: [2] 98 % of control | [4] 95 % of control | [6] 94 % of control

O=C(Nc1ccc(O)cc1)Nc1ccc(O)cc1
inactive: dose: 37.5 mg/kg/injection, schedule: Q01DX Z (ip), vehicle: carboxymethylcellulose (CMC) 103 % of control | dose: 53.0 mg/kg/injection, schedule: Q01DX Z (ip), vehicle: carboxymethylcellulose (CMC) 92 % of control | dose: 53.0 mg/kg/injection, schedule: Q01DX Z (ip), vehicle: other 105 % of control | dose: 75.0 mg/kg/injection, schedule: Q01DX Z (ip), vehicle: carboxymethylcellulose (CMC) 115 % of control | dose: 80.0 mg/kg/injection, schedule: Q01DX Z (ip), vehicle: carboxymethylcellulose (CMC) 93 % of control | dose: 80.0 mg/kg/injection, schedule: Q01DX Z (ip), vehicle: other 102 % of control | dose: 120.0 mg/kg/injection, schedule: Q01DX Z (ip), vehicle: carboxymethylcellulose (CMC) 92 % of control | dose: 120.0 mg/kg/injection, schedule: Q01DX Z (ip), vehicle: other 103 % of control | dose: 150.0 mg/kg/injection, schedule: Q01DX Z (ip), vehicle: carboxymethylcellulose (CMC) 103 % of control | dose: 180.0 mg/kg/injection, schedule: Q01DX Z (ip), vehicle: carboxymethylcellulose (CMC) 89 % of control | dose: 180.0 mg/kg/injection, schedule: Q01DX Z (ip), vehicle: other 102 % of control | dose: 270.0 mg/kg/injection, schedule: Q01DX Z (ip), vehicle: other 103 % of control | dose: 300.0 mg/kg/injection, schedule: Q01DX Z (ip), vehicle: carboxymethylcellulose (CMC) 98 % of control | dose: 404.0 mg/kg/injection, schedule: Q01DX Z (ip), vehicle: other 105 % of control

COC(=O)C(CC(C)C)NC(=O)C(Cc1ccccc1)NC(=O)OCc1ccccc1 (stereo not drawn) (Cbz-Phe-Leu-OMe; configuration not given here)
inactive: [15] 98 % of control | [16] 93 % of control | [17] 91 % of control

O=C(/C=C/c1ccco1)c1ccc(Cl)cc1
inactive: [7] 91 % of control | [13] 104 % of control | [14] 94 % of control
